According to patent US20130059096A1, “METHODS AND COATINGS FOR TREATING BIOFILMS” (President and Fellows of Harvard College, priority 2010, published 2013):

Assays:
TasA fibers = assay: Cell association of TasA fibers by immunogold transmission electron microscopy; assay type: cell-based, Bacillus subtilis; settings: 0.1 mM, 24-hour-old Δeps cultures treated for 12 hours
Experimental: Transmission electron microscopy and immunolabeling. Samples were diluted with distilled water and adsorbed onto a carbon or formvar/carbon coated grid. The grid surface was made hydrophilic prior to use with glow discharge in a vacuum evaporator. Once the specimen was adsorbed onto the film surface, the excess sample was blotted off on a filter paper (Whatman #1) and the grid was floated on 5 μl of stain solution (1-2% aqueous uranyl acetate) for a few minutes and then blotted off. The samples were dried and examined in a Tecnai™ G^2 Spirit BioTWIN microscope at an accelerating voltage of 80 KV. Images were taken with an AMT 2k CCD camera. […]
The cells were grown to stationary phase with shaking in biofilm-inducing medium in the presence or absence of D-tyrosine (6 μM). […] In contrast, when the cells were washed by centrifugation, resuspended and then examined by fluorescence microscopy, untreated cells (which were often in clumps) were seen to be intensely decorated with TasA-mCherry. […] The localization of unmodified TasA protein was also analyzed by transmission electron microscopy using gold-labeled anti-TasA antibodies. […]

[1] = tested on: Bacillus subtilis NCIB3610; assay: Pellicle (biofilm) formation in liquid biofilm-inducing medium; assay type: cell-based
Experimental: (§1) Colony and pellicle formation. For colony formation on solid medium, cells were first grown to exponential growth phase in LB broth and 3 μl of culture were spotted onto solid MSgg medium containing 1.5% Bacto agar. The plates were incubated at 23° C. For pellicle formation in liquid medium, cells were grown to exponential phase and 6 μl of culture were mixed with 6 ml of medium in a 12-well plate (VWR). Plates were incubated at 23° C. Images of colonies and pellicles were taken using a SPOT camera (Diagnostic Instruments, USA).
Preparing conditioned medium. Cells were grown in LB medium to exponential phase. 0.1 ml of culture was added to 100 ml of MSgg medium and grown without shaking in a 500 ml beaker at 23° C. Next, pellicles and conditioned medium was collected by centrifugation at 8,000 rpm for 15 min. The conditioned medium (supernatant fluid) was removed and filtered through a 0.22 μm filter. The filtrates were stored at 4° C. For further purification the biofilm-inhibiting activity was fractionated on a C-18 Sep Pak cartridge using stepwise elution of 0% to 100% methanol with steps of 5%.
To investigate whether mature biofilms produce a factor that triggers biofilm disassembly, the effect of concentrated and partially purified extracts of conditioned medium on pellicle formation when added to fresh medium was assayed. To this end, conditioned medium from an eight-day-old culture was applied to a C18 Sep Pak column. Concentrated eluate from the column was then added to a freshly inoculated culture. […] Further purification of the factor was achieved by eluting the cartridge in step-wise fashion with increasing concentrations of methanol.
Next, the minimum concentration (MIC for Minimal Inhibitory Concentration) needed to prevent biofilm formation was determined.

[2] = tested on: Bacillus subtilis NCIB3610; assay: Colony biofilm formation on solid MSgg medium; assay type: cell-based; settings: 3 μM, 4 days
Experimental: as §1

Structure (SMILES): N[C@H](Cc1ccc(O)cc1)C(=O)O [D-tyrosine]
- Cell association of TasA fibers (FIG. 3D) (TasA fibers): largely undecorated with TasA fibers
- Effect on pellicle formation (FIG. 2A) ([1]; 3 μM, freshly inoculated culture, biofilm-inducing medium, 3 days): significant inhibition of biofilm growth
- minimum concentration (MIC / MBIC) needed to prevent biofilm formation ([1]; FIG. 2B, complete inhibition of pellicle formation, mixture in equimolar amounts): about 100 nM
- Biofilm-inhibition assay for B. subtilis ([1]; summary statement, concentration not given): significant inhibition of biofilm growth
- Biofilm formation on solid MSgg medium (FIG. 6) [2]: inhibited biofilm formation
